{"source": "patent US20240150322A1", "about": "“CDK9 Inhibitors” (Biolexis Therapeutics, Inc., priority 2022, published 2024)", "assay_in_all_cases": "2D CellTiter-Glo cell viability assay", "type_in_all_cases": "cell-based", "key": {"NCI-H660": {"system": "NCI-H660", "conditions": "NCI-H660, 72 hours", "experimental": "(§1) CellTiter-Glo® 2.0 Luminescent cell viability assay reagent was purchased from Promega and 22Rv1 and LASCPC-01 cell lines were purchased from ATCC. […] An equal volume of CellTiter-Glo 2D Reagent was added to the cell suspensions and luminescence was recorded after 30-minute incubation period. […] FIG. 2 illustrates cellular antiproliferative efficacy of a benchmark CDK9 inhibitor AD-4573 on six prostate cancer cell lines over various concentrations.\n(§2) CellTiter-Glo® 2.0 Luminescent cell viability assay reagent was purchased from Promega and 22Rv1, LASCPC-01, C4-2, C4-2B and NCI-H660, DU-145, PC-3 and LNCap cell lines were obtained from ATCC and a clinical core facility at Huntsman Cancer Institute. […] The results of cell viability were obtained and IC50 values were calculated (see Table 5, below) showing sub-micromolar cell killing of these prostate cancer cells."}, "22Rv1": {"system": "22Rv1", "conditions": "Homo sapiens; 22Rv1, 72 hours", "experimental": "as §1, §2"}, "LASCPC-01": {"system": "LASCPC-01", "conditions": "LASCPC-01, 72 hours", "experimental": "as §1, §2"}, "LNCap": {"system": "LNCap", "conditions": "Homo sapiens, 72 hours", "experimental": "as §1, §2"}, "DU-145": {"system": "DU-145", "conditions": "Homo sapiens; DU-145, 72 hours", "experimental": "as §1, §2"}}, "data": [{"smiles": "CC(C)c1c2cc(-c3ccnc(N[C@H]4CC[C@H](N)C4)n3)ccc2nn1C", "note": "[Compound I-2, (1S,3S)-[3-[4-(3-isopropyl-2-methylindazol-5-yl)pyrimidin-2-yl]aminocyclopentan-1-yl]-1,3-diamine]", "values": [{"measurement": "IC50", "setting": "NCI-H660", "result": 448, "unit": "nM"}, {"measurement": "IC50", "setting": "22Rv1", "result": 132, "unit": "nM"}, {"measurement": "IC50", "setting": "LASCPC-01; 72 h", "result": 58, "unit": "nM"}, {"measurement": "IC50", "setting": "LASCPC-01", "result": 58, "unit": "nM"}, {"measurement": "IC50", "setting": "LNCap", "result": 80.4, "unit": "nM"}, {"measurement": "IC50", "setting": "DU-145", "result": 7720, "unit": "nM"}]}]}
